Measurements reported in ChEMBL document CHEMBL1255229, “Novel antimicrobial peptides that exhibit activity against select agents and other drug resistant bacteria” (2010).
In brackets after ≈: the same amount, converted by molar mass. Starred links: 1 amine or outer side, 2 acyl side, 3 side chain; linkers in the order of their positions; H or OH if unused. Non-standard residues stand in square brackets, D forms with d. Residues, ends and D or L forms follow the SMILES beside them. X1 = O=C([C@@H]1CN([*:1])C2CCCCC21)[*:2]; Tic = O=C(O)[C@@H]1Cc2ccccc2CN1

Columns and labels:
Format in all cases: functional
Yersinia pestis = assay: Antimicrobial activity against Yersinia pestis CO92 after 24 hrs; conditions: CO92, 24 h
Brucella abortus = assay: Antimicrobial activity against Brucella abortus 2308 after 24 hrs; conditions: Brucella abortus, 2308, 24 h
Burkholderia mallei = assay: Antimicrobial activity against Burkholderia mallei ATCC 23444 after 24 hrs; conditions: ATCC 23444, 24 h
Brucella melitensis = assay: Antimicrobial activity against Brucella melitensis 16 M after 24 hrs
[1] = system: Burkholderia pseudomallei; assay: Antimicrobial activity against Burkholderia pseudomallei BURK003(1026b) after 24 hrs
Staphylococcus aureus = assay: Antimicrobial activity against methicillin-resistant Staphylococcus aureus ATCC 33591 after 24 hrs; conditions: ATCC 33591, 24 h
Brucella suis = assay: Antimicrobial activity against Brucella suis ATCC 23445 after 24 hrs; conditions: ATCC 23445, 24 h
Francisella tularensis = assay: Antimicrobial activity against Francisella tularensis SCHU-S4 after 24 hrs; conditions: SCHU-S4, 24 h
Acinetobacter baumannii [2] = assay: Antimicrobial activity against Acinetobacter baumannii WRAIR after 24 hrs
Acinetobacter baumannii [3] = assay: Antimicrobial activity against Acinetobacter baumannii ATCC 19606 after 24 hrs; conditions: ATCC 19606 = CIP 70.34 = JCM 6841, 24 h
Bacillus anthracis = assay: Antimicrobial activity against Bacillus anthracis Ames after 24 hrs

In the case of `CC(=O)NCC(=O)N[C@@H](Cc1ccccc1)C(=O)N1Cc2ccccc2C[C@H]1C(=O)N1C[C@@H](C(=O)NCC(=O)N[C@@H](CCCNC(=N)N)C(=O)N2Cc3ccccc3C[C@H]2C(=O)N2C[C@@H](C(=O)NCC(=O)N[C@@H](Cc3ccccc3)C(=O)N3Cc4ccccc4C[C@H]3C(=O)N3C[C@@H](C(=O)NCC(=O)N[C@@H](CCCNC(=N)N)C(=O)N4Cc5ccccc5C[C@H]4C(=O)N[C@@H](CCCNC(=N)N)C(=O)N[C@@H](CCCNC(=N)N)C(=O)N[C@@H](CCCNC(=N)N)C(=O)N[C@@H](CCCNC(=N)N)C(N)=O)C4CCCCC43)C3CCCCC32)C2CCCCC21` (stereo partly specified) (Ac-GF[Tic][X1]GR[Tic][X1]GF[Tic][X1]GR[Tic]RRRR-NH2), the MIC (Yersinia pestis) is reported as 192 µM (≈ 501 µg/mL), the MIC (Brucella abortus) is reported as 192 µM (≈ 501 µg/mL) and the MIC (Burkholderia mallei) is reported as 192 µM (≈ 501 µg/mL). The MIC (Brucella melitensis) was 192 µM (≈ 501 µg/mL), the MIC [1] was 192 µM (≈ 501 µg/mL) and the MIC (Staphylococcus aureus) was 96 µM (≈ 250 µg/mL). The MIC (Brucella suis) was 192 µM (≈ 501 µg/mL), the MIC (Francisella tularensis) was 192 µM (≈ 501 µg/mL) and the MIC (Acinetobacter baumannii [2]) was 24 µM (≈ 62.6 µg/mL). The MIC (Acinetobacter baumannii [3]) was 5.98 µM (≈ 15.6 µg/mL) and the MIC (Bacillus anthracis) was 5.98 µM (≈ 15.6 µg/mL).
